Measured values from paper PMC9728921, “Characterization of a KDM5 small molecule inhibitor with antiviral activity against hepatitis B virus” (PLOS ONE, 2022).

Experiments:
PRMT4 = target: T1, PRMT4 (Homo sapiens, UniProt Q86X55); experiment: Histone methyltransferase enzymatic assay, PRMT4; type: biochemical; conditions: enzyme conc. 100 nM
T1 construct: 2-608
Method: Histone methyltransferase assays were performed in 96-well half-area optiplates (PerkinElmer) at room temperature. All concentrations are final unless noted otherwise. Compounds were serially diluted in DMSO and the final DMSO concentration was 1%. A 24 μL reaction mixture contained compound, enzyme, 200 nM of nucleosome or histone substrate, 400 nM ^3H-SAM (83.1 Ci/mmol), 50 mM Tris-HCl (pH 8.0), 50 mM NaCl, 5 mM MgCl2, 1 mM DTT, and 0.01% Tween-20. The plate was sealed, mixed on a Titramax plate shaker at 1200 rpm for 30 sec, and incubated at room temperature for 60 min. The reaction was quenched by addition of 24 μL mixture containing 5 mg/mL PVT-PEI beads and 300 μM unlabeled SAM in water. The plate was sealed, mixed as previously noted, incubated overnight, and read on a TopCount plate reader (PerkinElmer).
Data was analyzed using GraphPad Prism 6.0 (La Jolla, CA). […] IC50 values were calculated as an average of at least two independent experiments.

[1] = Liver to plasma AUC ratio, cynomolgus monkey; type: in vivo, cynomolgus monkeys; conditions: male, liver and plasma, po, 2.5 mg/kg, read-out: GS-080 liver to plasma AUC ratio
Method: Rats and monkeys were dosed by oral gavage once with 1 mg/kg or 2.5 mg/kg, respectively. The rat study included a vehicle control group (water). Serial venous blood samples were taken at 0, 0.25, 0.5, 1, 2, 4, 6, 8, 12, and 24 hours post dose from each animal and collected into vacutainer tubes containing potassium oxalate/sodium fluoride (Thermo Fisher; BD367925) as the anti-coagulant and blood was centrifuged for plasma isolation. […] For monkey, liver samples were taken by biopsy at pre-dose, 1, 4, 24, 48, and 72 hours post dose (n = 2 per time point). Rat and monkey livers were weighed and immediately flash frozen in liquid nitrogen.
500 μL of cold HPLC grade water was added to each monkey liver biopsy sample and rat liver samples were diluted 3-fold with cold HPLC grade water. Diluted liver samples were homogenized between 1 and 3 minutes. 50 μL of plasma samples and homogenized liver samples were quenched with 200 μL of 0.05% formic acid in acetonitrile. […] An Agilent 1200 series binary pump (Santa Clara, CA; G1312A) was used for elution and separation of compounds with a Hypersil Gold C18 HPLC column (Thermo Fisher; 50 x 3.0 mm, 5 μm) over 6.75 minutes with 99–3% gradient of Mobile Phase A (1% acetonitrile in 2.5 mM ammonium formate aqueous solution pH 2.6) and 1–97% gradient Mobile Phase B (90% acetonitrile in aqueous 10 mM ammonium formate pH 6.8).

T1 sequence (Q86X55 2-608): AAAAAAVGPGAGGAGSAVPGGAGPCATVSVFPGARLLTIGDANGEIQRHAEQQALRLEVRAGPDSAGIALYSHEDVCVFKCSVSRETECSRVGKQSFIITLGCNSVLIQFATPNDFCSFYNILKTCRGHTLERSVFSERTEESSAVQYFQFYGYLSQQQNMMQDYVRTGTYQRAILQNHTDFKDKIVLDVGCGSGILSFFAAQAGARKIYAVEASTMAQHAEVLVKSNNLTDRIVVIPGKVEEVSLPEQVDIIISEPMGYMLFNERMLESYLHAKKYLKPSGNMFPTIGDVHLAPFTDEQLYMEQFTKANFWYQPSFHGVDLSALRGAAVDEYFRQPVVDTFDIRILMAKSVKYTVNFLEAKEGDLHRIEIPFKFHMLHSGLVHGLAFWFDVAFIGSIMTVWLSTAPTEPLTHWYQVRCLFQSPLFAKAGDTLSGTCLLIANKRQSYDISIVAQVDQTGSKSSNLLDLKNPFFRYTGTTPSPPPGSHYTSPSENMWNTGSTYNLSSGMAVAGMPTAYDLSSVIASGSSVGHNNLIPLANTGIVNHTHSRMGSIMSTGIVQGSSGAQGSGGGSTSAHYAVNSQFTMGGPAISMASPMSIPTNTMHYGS

SMILES: CCN(CCN(C)C)C(=O)CNCc1cc(C(=O)O)ccn1 [GS-080]
- IC50 (PRMT4): > 100 µM
- Kp [1]: 176
